Among the test systems are NCI-H522 lung; KM20L2 colon; M14 melanoma; HCC-2998 colon; SNB-78 CNS; LXFL 529 NSCLC; DLD-1 colon; T-47D breast; DU-145 prostate.
What all share (assay): growth of human tumour cells (NCI), 48 h

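Five concentrations, 48 hours, 96-well plates. GI50 marks 50% less growth. TGI: concentration producing complete growth inhibition.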 Where a SMILES comes first, the peptide text is derived from it. [ ]: non-standard residue; d: D form. The star is where a group is joined. ξ: configuration not given here. ξW = NC(Cc1c[nH]c2ccccc12)C(=O)O; X30 = O=C(O)[C@H]1CCC[C@H]1N*; ξF = NC(Cc1ccccc1)C(=O)O; Boc = CC(C)(C)OC(=O)*; ξK = NCCCCC(N)C(=O)O; ξT = CC(O)C(N)C(=O)O; OBn = c1ccc(CO*)cc1; tBu = CC(C)(C)*

As for `CCCC(=O)[O-].CCCC(=O)[O-].N.N.N.N.[Co+3].[O-][Cl+3]([O-])([O-])[O-]`, the TGI with NCI-H522 lung, in the experiment with KM20L2 colon, with M14 melanoma, in the experiment with HCC-2998 colon, with SNB-78 CNS and in the experiment with LXFL 529 NSCLC was above 100 µM throughout. Further, the TGI with DLD-1 colon was above 100 µM. The GI50 with KM20L2 colon, with SNB-78 CNS, with LXFL 529 NSCLC and in the experiment on DLD-1 colon was above 100 µM in each case.

For `Nc1nc(NCC2(CO)CC(CCc3ccccc3)C2)cc(=O)[nH]1` (stereo unspecified), the TGI in the experiment with NCI-H522 lung, in the experiment with T-47D breast, in the experiment with M14 melanoma, in the experiment on HCC-2998 colon and in the experiment with DU-145 prostate was above 100 µM throughout.

In the case of `CC(C(=O)N1C(=O)N(C(=O)[C@H](C)C(O)c2ccccc2)[C@H](c2ccccc2)[C@H]1c1ccccc1)[C@@H](O)c1ccccc1` (stereo partly specified), the TGI with NCI-H522 lung is above 100 µM; in the experiment on T-47D breast, above 100 µM; with M14 melanoma, 61.7 µM; in the experiment on HCC-2998 colon it was above 100 µM; in the experiment with DU-145 prostate, above 100 µM.

For the compound `CC(OC(C)(C)C)C(NC(=O)C(CCCCNC(=O)OC(C)(C)C)NC(=O)C(Cc1c[nH]c2ccccc12)NC(=O)C(N)Cc1ccccc1)C(=O)NC(Cc1ccccc1)C(=O)N[C@@H]1CCC[C@@H]1C(=O)O` (stereo partly specified) (H-[ξF][ξW][ξK](Boc)[ξT](tBu)[ξF]-X30), the TGI in the experiment with NCI-H522 lung was 41 µM; with T-47D breast it was above 100 µM; in the experiment with M14 melanoma, above 100 µM; in the experiment with HCC-2998 colon, 41.1 µM; in the experiment on DU-145 prostate, above 100 µM.

As for `CN1CC(S(=O)(=O)c2ccccc2)CC(S(=O)(=O)c2ccccc2)C1c1ccccc1` (stereo unspecified), the TGI in the experiment with NCI-H522 lung came to 13.1 µM; in the experiment on T-47D breast, 50.6 µM; in the experiment on M14 melanoma it was 42.1 µM; in the experiment with HCC-2998 colon it was 30.3 µM; with DU-145 prostate it was 60.8 µM.

As to `CCN(CC)C(=O)N[C@@H](Cc1ccccc1)C(=O)NC`, the TGI in the experiment on NCI-H522 lung, in the experiment on T-47D breast, in the experiment with M14 melanoma, in the experiment with HCC-2998 colon and in the experiment on DU-145 prostate was above 100 µM in each case.

Regarding `O=C(Nn1c(-c2ccccc2)nc2ccccc2c1=O)c1ccc(O)cc1`, the TGI in the experiment on NCI-H522 lung, in the experiment with T-47D breast, with M14 melanoma, in the experiment on HCC-2998 colon and in the experiment on DU-145 prostate was above 100 µM each time.

For `CC(C)C(NC(=O)CNC(=O)C1CCCN1C(=O)C(NC(=O)OC(C)(C)C)C(C)C)C(=O)NCC(=O)OCc1ccccc1` (stereo unspecified) (Boc-VPGVG-OBn; configuration not given here), the TGI in the experiment with NCI-H522 lung, in the experiment on T-47D breast, with M14 melanoma, in the experiment on HCC-2998 colon and with DU-145 prostate was above 100 µM each time.

Regarding `CCN(CC)c1nc(=O)c(C(=O)C(C)(C)C)c(C(C)(C)C)o1`, the TGI with NCI-H522 lung, in the experiment with T-47D breast, in the experiment on M14 melanoma, in the experiment on HCC-2998 colon and in the experiment on DU-145 prostate was above 100 µM in each case.

On to `CC(=O)[C@]1(C)[C@H](C)O[C@](C)(CO)[C@H]1O[Si](C)(C)c1ccccc1`, for which the TGI is 52.3 µM with NCI-H522 lung; 97.9 µM in the experiment with T-47D breast; above 100 µM with M14 melanoma; above 100 µM in the experiment with HCC-2998 colon; above 100 µM in the experiment on DU-145 prostate.

In the case of `N#Cc1c(-c2ccccc2)c(C#N)c(=S)n(C2OCC(O)C(O)C2O)c1N` (stereo unspecified), the TGI in the experiment on NCI-H522 lung, in the experiment with T-47D breast, with M14 melanoma, in the experiment on HCC-2998 colon and with DU-145 prostate was above 100 µM each time.

As to `CCOC(=O)c1nc2cc(C(F)(F)F)ccc2nc1Oc1ccc(C(=O)OC)cc1`, the TGI with NCI-H522 lung, with T-47D breast, in the experiment with M14 melanoma, in the experiment with HCC-2998 colon and in the experiment on DU-145 prostate was above 100 µM each time.

With `COc1ccc2[nH]cc(CN3CCC(CO)(c4ccccc4)CC3)c2c1`, the TGI in the experiment on NCI-H522 lung is 35.5 µM; with T-47D breast, 46.5 µM; with M14 melanoma, 32.3 µM; in the experiment on HCC-2998 colon, 46.2 µM; in the experiment on DU-145 prostate it was above 100 µM.

As for `CN(C)c1ccc(/C=C2\N=C(c3ccccc3)N(/N=C3\C(=O)Nc4ccccc43)C2=O)cc1`, the TGI in the experiment with NCI-H522 lung, with T-47D breast, in the experiment with M14 melanoma, in the experiment on HCC-2998 colon and in the experiment on DU-145 prostate was above 100 µM in each case.

As to `CCCCC1=CC1(C#N)[N+](=O)[O-]` (stereo unspecified), the TGI with NCI-H522 lung, with T-47D breast, with M14 melanoma, in the experiment with HCC-2998 colon and in the experiment with DU-145 prostate was above 100 µM throughout.

Turning to `O=C(Nc1ccc(N2C(=O)CSC2c2cccs2)cc1)c1ccc(N2C(=O)CSC2c2cccs2)cc1` (stereo unspecified), the TGI with NCI-H522 lung, with T-47D breast, with M14 melanoma, in the experiment on HCC-2998 colon and with DU-145 prostate was above 100 µM in each case.

For the compound `CCN(CC)CCNc1ccc2ncn3c4c(OC)ccc(=O)c4c(O)c1c23`, the TGI in the experiment with NCI-H522 lung is above 39.7 µM; in the experiment with T-47D breast, above 100 µM; in the experiment on M14 melanoma, above 100 µM; in the experiment on HCC-2998 colon, above 100 µM; in the experiment on DU-145 prostate, above 100 µM.

As to `N#Cc1nc(NC(=O)c2ccccc2)sc1N`, the TGI with NCI-H522 lung, in the experiment on T-47D breast, in the experiment with M14 melanoma, in the experiment on HCC-2998 colon and in the experiment with DU-145 prostate was above 10 µM in each case.

Take `CCCCCCCCCCCCCCC[C@@H](O)C[N+](C)(C)CCO`: the TGI came to 4.35 µM in the experiment on NCI-H522 lung; 55.6 µM in the experiment with T-47D breast; 41.1 µM with M14 melanoma; 4.81 µM with HCC-2998 colon; 48.2 µM with DU-145 prostate.

Take `O=C1c2ccccc2-n2c1nc1cc(Cl)ccc1c2=O`: the TGI is above 100 µM with NCI-H522 lung; 48.8 µM in the experiment on T-47D breast; above 100 µM with M14 melanoma; above 100 µM with HCC-2998 colon; above 100 µM in the experiment on DU-145 prostate.

For `C=CCN(c1cc(OCc2ccccc2)c2c(c1)c(C)cn2S(=O)(=O)c1ccccc1)S(C)(=O)=O`, the TGI with NCI-H522 lung, in the experiment with T-47D breast, in the experiment on M14 melanoma, in the experiment on HCC-2998 colon and with DU-145 prostate was above 100 µM throughout.

With `COC1CC(n2ccc(=O)[nH]c2=O)OC1CO` (stereo unspecified), the TGI in the experiment on NCI-H522 lung, in the experiment with T-47D breast, in the experiment on M14 melanoma, in the experiment with HCC-2998 colon and with DU-145 prostate was above 100 µM throughout.

With `N#CC1C(=O)NC2=C(CCOc3c2ccc2ccccc32)C1c1ccc(F)cc1` (stereo unspecified), the TGI with NCI-H522 lung is above 100 µM; with T-47D breast, 99.5 µM; in the experiment on M14 melanoma, 68 µM; in the experiment with HCC-2998 colon, 59.9 µM; in the experiment on DU-145 prostate it was above 100 µM.

Consider `Nc1nc(Sc2ccc([N+](=O)[O-])cn2)c2[nH]cnc2n1`, for which the TGI is 40.2 µM in the experiment with NCI-H522 lung; above 42.3 µM in the experiment with T-47D breast; 24.1 µM with M14 melanoma; 96.8 µM with HCC-2998 colon; 43.8 µM in the experiment with DU-145 prostate.

Consider `Cc1cn(C2CC(N=[N+]=[N-])C(CO)O2)c(=O)n(CCCCO)c1=O` (stereo unspecified), for which the TGI in the experiment with NCI-H522 lung, in the experiment on T-47D breast, in the experiment on M14 melanoma, with HCC-2998 colon and with DU-145 prostate was above 100 µM throughout.

Consider `Cc1cccc(Nc2nc(NNC(=O)Cc3ccccc3)nc(NNC(=O)c3ccncc3)n2)c1`, for which the TGI with NCI-H522 lung, in the experiment with T-47D breast, in the experiment with M14 melanoma, with HCC-2998 colon and in the experiment with DU-145 prostate was above 10 µM in each case.

For the compound `COC(=O)c1c2c(cc3c1CC1(C3)Cc3ccc4c(c3C1=O)CCC4)CCC2` (stereo unspecified), the TGI in the experiment with NCI-H522 lung is 6.19 µM; with T-47D breast, above 100 µM; with M14 melanoma, 18.6 µM; with HCC-2998 colon it was 40.1 µM; in the experiment on DU-145 prostate it was above 100 µM.

Turning to `CSc1n[nH]c2n[nH]c(C)c12`, the TGI with NCI-H522 lung, in the experiment on T-47D breast, in the experiment on M14 melanoma, in the experiment on HCC-2998 colon and with DU-145 prostate was above 100 µM in each case.

On to `CC(=O)NC(CCCOC(C)=O)C(=O)NC(CCCOC(C)=O)C(=O)NC(CCCOC(C)=O)C(=O)NC(Cc1ccc([N+](=O)[O-])cc1)C(=O)NCC(=O)OCc1ccccc1` (stereo unspecified), for which the TGI in the experiment on NCI-H522 lung, with T-47D breast, with M14 melanoma, with HCC-2998 colon and in the experiment with DU-145 prostate was above 100 µM each time.

`CC(=O)OC(C#N)CC(C)(C)/[N+]([O-])=[N+](\[O-])C(C)(C)CC(C#N)OC(C)=O` (stereo unspecified): the TGI with NCI-H522 lung came to 23.9 µM; with T-47D breast, 50.2 µM; with M14 melanoma, 32.2 µM; in the experiment with HCC-2998 colon it was 31.6 µM; in the experiment with DU-145 prostate it was 43.8 µM.

The values are drawn from PubChem BioAssay (NCI).
